Reference: US6462055B2, “Alpha-methylbenzyl-containing thiourea inhibitors of herpes viruses containing a phenylenediamine group” (Wyeth, priority 1998, dated 2002)
Values after ≈ are worked out from the molar mass of the structure shown.

Key:
[1] = test system: HCMV recombinant mutant virus (RV145); test: microbe, parasite or virus in culture; assay type: cell-based, human cytomegalovirus; conditions: for IC50: Human betaherpesvirus 5, read-out: IC50 ug/ml HCMV, HCMV
Method in brief: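 Read-out is beta-glucuronidase activity in cell lysates 96 h after infection, measured colorimetrically or fluorometrically. Reporter virus RV145 expresses the enzyme under a viral promoter in human foreskin fibroblasts treated with inhibitor.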

[2] = test system: HSV-1; test: HSV Antiviral (ELISA) Assay in Vero cells; assay type: cell-based, herpes simplex virus type 1; conditions: HSV-1, Vero cells; for IC50: Human alphaherpesvirus 1, read-out: IC50 (ug/ml) HSV
Method in brief: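 Viral replication was quantified by cell-fixed ELISA for HSV glycoprotein D, using a β-galactosidase reporter and fluorogenic umbelliferyl substrate, about 24 h after HSV-1 infection (MOI 0.006) of Vero cells. Compounds, at several concentrations, were added 30 min pre-infection. IC50 was derived from fluorescence relative to the compound-free signal.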

[3] = test system: VZV strain Ellen; test: VZV Antiviral (ELISA) Assay in human foreskin fibroblast cells; assay type: cell-based, varicella-zoster virus; conditions: for IC50: Human alphaherpesvirus 3, Fibroblast, read-out: IC50 (ug/ml) VZV
Method in brief: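 Low-MOI (<0.1) Ellen infection of HFF overnight; cell mix plated 3.5×10^4/well with compound, DMEM + 2% FBS, 3 d, 37° C, 5% CO2. Fix, anti-gpII mAb ELISA, MUG substrate, fluorescence. IC50 vs compound-free signal.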

SMILES | IC50 ug/ml HCMV [1] | IC50 (ug/ml) HSV [2] | IC50 (ug/ml) VZV [3] | IC50 [1] | IC50 [2] | IC50 [3]
O=C(Nc1ccc(NC(=S)NCCc2ccc(F)cc2)cc1)c1ccccc1F [Example 552] | >0.5 µg/mL | >10 µg/mL | >10 µg/mL | – | – | –
O=C(Nc1ccc(NC(=S)NCCc2ccc(F)cc2)cc1)c1ccccc1F [Example 553] | – | – | – | > 0.5 µg/mL | > 10 µg/mL | 7 µg/mL (≈ 17 µM)
O=C(Nc1ccc(NC(=S)NCCc2cccc(Cl)c2)cc1)c1ccccc1F [Example 563] | >0.5 µg/mL | >10 µg/mL | 9 µg/mL (≈ 21 µM) | – | – | –
CC(NC(=S)Nc1ccc(NC(=O)c2ccccc2F)cc1)c1ccccc1 (stereo not drawn) [Example 589] | 7 µg/mL (≈ 17.8 µM) | >10 µg/mL | 0.36 µg/mL (≈ 0.915 µM) | – | – | –
CC(NC(=S)Nc1ccc(NC(=O)c2ccccc2F)cc1)c1ccc(F)cc1 (stereo not drawn) [Example 591] | – | – | – | 7 µg/mL (≈ 17 µM) | > 10 µg/mL | 1.5 µg/mL (≈ 3.65 µM)
CC(C)CN(C)c1cc(NC(=S)Nc2ccc(NC(=O)c3ccccc3F)cc2)cc(C(F)(F)F)c1 [Example 596] | 2 µg/mL (≈ 3.86 µM) | >10 µg/mL | >10 µg/mL | – | – | –
CCCCN(C)c1cc(NC(=S)Nc2ccc(NC(=O)c3ccccc3F)cc2)cc(C(F)(F)F)c1 [Example 598] | >10 µg/mL | >10 µg/mL | >10 µg/mL | – | – | –
O=C(Nc1ccc(NC(=S)NCCCc2ccccc2)cc1)c1ccccc1F [Example 628] | >10 µg/mL | >10 µg/mL | 10 µg/mL (≈ 24.5 µM) | – | – | –
CN(C)c1cc(CNC(=S)Nc2ccc(NC(=O)c3ccccc3F)cc2)cc(C(F)(F)F)c1 [Example 636] | >10 µg/mL | >10 µg/mL | 5 µg/mL (≈ 10.2 µM) | – | – | –
COc1cccc(C(=O)Nc2ccc(NC(=S)NC(C)c3ccc(F)cc3)cc2)c1 (stereo not drawn) [Example 753] | >0.5 µg/mL | >10 µg/mL | >7.5 µg/mL | – | – | –
COc1ccc(C(=O)Nc2ccc(NC(=S)NC(C)c3ccc(F)cc3)cc2)cc1 (stereo not drawn) [Example 754] | >10 µg/mL | >10 µg/mL | 0.2 µg/mL (≈ 0.472 µM) | – | – | –
CC(NC(=S)Nc1ccc(NC(=O)c2ccccc2Cl)cc1)c1ccc(F)cc1 (stereo not drawn) [Example 755] | >10 µg/mL | >10 µg/mL | 7 µg/mL (≈ 16.4 µM) | – | – | –
CC(NC(=S)Nc1ccc(NC(=O)c2ccc(Cl)cc2)cc1)c1ccc(F)cc1 (stereo not drawn) [Example 756] | >10 µg/mL | >10 µg/mL | 0.3 µg/mL (≈ 0.701 µM) | – | – | –
CC(=O)Oc1ccc(C(=O)Nc2ccc(NC(=S)NC(C)c3ccc(F)cc3)cc2)cc1 (stereo not drawn) [Example 757] | >10 µg/mL | >10 µg/mL | 1.5 µg/mL (≈ 3.32 µM) | – | – | –
CC(NC(=S)Nc1ccc(NC(=O)c2ccccc2)cc1)c1ccc(F)cc1 (stereo not drawn) [Example 758] | – | – | – | > 10 µg/mL | > 10 µg/mL | > 10 µg/mL
CC(NC(=S)Nc1ccc(NC(=O)c2ccc(O)cc2)cc1)c1ccc(F)cc1 (stereo not drawn) [Example 760] | – | – | – | > 10 µg/mL | > 10 µg/mL | > 10 µg/mL
CCCCC(NC(=S)Nc1ccc(NC(=O)c2ccccc2F)cc1)c1ccc(F)cc1 (stereo not drawn) [Example 773] | 1.2 µg/mL (≈ 2.65 µM) | >10 µg/mL | >7.5 µg/mL | – | – | –
O=C(Nc1ccc(NC(=S)NC(Cc2ccccc2)c2ccc(F)cc2)cc1)c1ccccc1F (stereo not drawn) [Example 774] | 0.5 µg/mL (≈ 1.03 µM) | >10 µg/mL | >7.5 µg/mL | – | – | –
Cc1ccccc1C(C)NC(=S)Nc1ccc(NC(=O)c2ccccc2F)cc1 (stereo not drawn) [Example 775] | 1 µg/mL (≈ 2.45 µM) | >10 µg/mL | >7.5 µg/mL | – | – | –
Cc1cccc(C(C)NC(=S)Nc2ccc(NC(=O)c3ccccc3F)cc2)c1 (stereo not drawn) [Example 776] | 0.9 µg/mL (≈ 2.21 µM) | >10 µg/mL | >7.5 µg/mL | – | – | –
COc1ccc(C(C)NC(=S)Nc2ccc(NC(=O)c3ccccc3F)cc2)cc1 (stereo not drawn) [Example 777] | 1.7 µg/mL (≈ 4.01 µM) | >10 µg/mL | >7.5 µg/mL | – | – | –
CC(NC(=S)Nc1ccc(NC(=O)c2ccccc2F)cc1)c1ccccc1F (stereo not drawn) [Example 778] | – | – | – | 0.8 µg/mL (≈ 1.94 µM) | > 10 µg/mL | 3 µg/mL (≈ 7.29 µM)
